The values that follow come from ChEMBL document CHEMBL5442175, “EUbOPEN Chemogenomics Library - PDSP Secondary Binding” (2024).

pKi: −log10 of the molar value.

Assay [1] addresses T1, Muscarinic acetylcholine receptor M5 (Homo sapiens, UniProt P08912).
T1 sequence (P08912 whole entry): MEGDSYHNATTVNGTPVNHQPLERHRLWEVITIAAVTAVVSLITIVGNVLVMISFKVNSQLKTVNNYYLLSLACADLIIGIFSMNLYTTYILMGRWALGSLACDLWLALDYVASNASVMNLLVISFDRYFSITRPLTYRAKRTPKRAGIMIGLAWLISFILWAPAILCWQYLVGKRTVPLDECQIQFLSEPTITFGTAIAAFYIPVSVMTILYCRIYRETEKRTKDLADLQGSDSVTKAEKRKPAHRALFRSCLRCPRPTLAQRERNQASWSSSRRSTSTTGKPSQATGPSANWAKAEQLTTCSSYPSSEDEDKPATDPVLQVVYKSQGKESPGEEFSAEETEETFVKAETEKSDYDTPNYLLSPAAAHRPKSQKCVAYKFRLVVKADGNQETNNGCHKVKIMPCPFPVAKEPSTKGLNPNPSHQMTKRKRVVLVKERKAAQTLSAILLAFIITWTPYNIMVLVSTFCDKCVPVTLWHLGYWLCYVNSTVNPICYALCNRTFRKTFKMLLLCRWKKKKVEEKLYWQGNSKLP
Nature of the assay: PDSP Secondary Binding target: CHRM5 - Compounds are tested at 10 uM concentration, plate are incubated at room temperature in the dark for 90 minutes. Reaction are stopped by vacuum filtration onto 0.3% polyethyleneimine soaked filter mats using Filtermate harvester. Scintillation cocktail is then melted onto microwave-dried filters on a hot plate and the radio activity is counted in Microbia counter.

Assay [2] concerns the target Kappa-type opioid receptor (Homo sapiens, UniProt P41145). Nature of the assay: PDSP Secondary Binding target: OPRK1 - Compounds are tested at 10 uM concentration, plate are incubated at room temperature in the dark for 90 minutes. Reaction are stopped by vacuum filtration onto 0.3% polyethyleneimine soaked filter mats using Filtermate harvester. Scintillation cocktail is then melted onto microwave-dried filters on a hot plate and the radio activity is counted in Microbia counter.

Assay [3] concerns the target Sigma intracellular receptor 2 (Homo sapiens, UniProt Q5BJF2). The assay can be described thus: PDSP Secondary Binding target: TMEM97 - Compounds are tested at 10 uM concentration, plate are incubated at room temperature in the dark for 90 minutes. Reaction are stopped by vacuum filtration onto 0.3% polyethyleneimine soaked filter mats using Filtermate harvester. Scintillation cocktail is then melted onto microwave-dried filters on a hot plate and the radio activity is counted in Microbia counter.

The next assay deals with D(1B) dopamine receptor (Homo sapiens, UniProt P21918). Nature of the assay: PDSP Secondary Binding target: DRD5 - Compounds are tested at 10 uM concentration, plate are incubated at room temperature in the dark for 90 minutes. Reaction are stopped by vacuum filtration onto 0.3% polyethyleneimine soaked filter mats using Filtermate harvester. Scintillation cocktail is then melted onto microwave-dried filters on a hot plate and the radio activity is counted in Microbia counter.
Chain of D(1B) dopamine receptor (P21918 whole entry): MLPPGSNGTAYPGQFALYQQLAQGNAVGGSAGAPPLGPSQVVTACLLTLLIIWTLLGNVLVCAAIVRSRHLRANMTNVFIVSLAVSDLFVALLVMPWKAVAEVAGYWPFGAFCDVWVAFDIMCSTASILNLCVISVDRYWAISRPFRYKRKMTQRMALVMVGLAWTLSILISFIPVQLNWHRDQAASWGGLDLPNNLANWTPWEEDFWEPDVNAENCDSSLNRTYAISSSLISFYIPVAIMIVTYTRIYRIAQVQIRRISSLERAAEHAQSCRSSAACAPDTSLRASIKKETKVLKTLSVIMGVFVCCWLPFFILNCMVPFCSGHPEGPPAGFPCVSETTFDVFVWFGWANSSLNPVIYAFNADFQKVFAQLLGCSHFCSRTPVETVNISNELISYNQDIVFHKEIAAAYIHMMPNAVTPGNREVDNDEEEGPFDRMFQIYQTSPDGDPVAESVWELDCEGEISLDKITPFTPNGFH

Assay [4] addresses 5-hydroxytryptamine receptor 1E (Homo sapiens, UniProt P28566). Nature of the assay: PDSP Secondary Binding target: HTR1E - Compounds are tested at 10 uM concentration, plate are incubated at room temperature in the dark for 90 minutes. Reaction are stopped by vacuum filtration onto 0.3% polyethyleneimine soaked filter mats using Filtermate harvester. Scintillation cocktail is then melted onto microwave-dried filters on a hot plate and the radio activity is counted in Microbia counter.

Assay [5] has as its target 5-hydroxytryptamine receptor 7 (Homo sapiens, UniProt P34969). The assay can be described thus: PDSP Secondary Binding target: HTR7 - Compounds are tested at 10 uM concentration, plate are incubated at room temperature in the dark for 90 minutes. Reaction are stopped by vacuum filtration onto 0.3% polyethyleneimine soaked filter mats using Filtermate harvester. Scintillation cocktail is then melted onto microwave-dried filters on a hot plate and the radio activity is counted in Microbia counter.

In assay [6] the target is 5-hydroxytryptamine receptor 1D (Homo sapiens, UniProt P28221). Nature of the assay: PDSP Secondary Binding target: HTR1D - Compounds are tested at 10 uM concentration, plate are incubated at room temperature in the dark for 90 minutes. Reaction are stopped by vacuum filtration onto 0.3% polyethyleneimine soaked filter mats using Filtermate harvester. Scintillation cocktail is then melted onto microwave-dried filters on a hot plate and the radio activity is counted in Microbia counter.
Chain of 5-hydroxytryptamine receptor 1D (P28221 whole entry): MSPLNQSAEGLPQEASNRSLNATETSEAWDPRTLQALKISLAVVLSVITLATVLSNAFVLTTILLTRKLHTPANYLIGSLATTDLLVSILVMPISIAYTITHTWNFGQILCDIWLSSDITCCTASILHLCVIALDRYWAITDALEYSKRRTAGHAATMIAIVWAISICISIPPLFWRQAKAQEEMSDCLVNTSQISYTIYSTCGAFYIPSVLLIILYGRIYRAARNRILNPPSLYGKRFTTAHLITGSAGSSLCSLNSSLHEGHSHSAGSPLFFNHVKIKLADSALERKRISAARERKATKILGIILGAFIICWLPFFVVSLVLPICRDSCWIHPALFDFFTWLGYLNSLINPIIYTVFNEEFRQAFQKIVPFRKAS

Assay [7] concerns the target Sigma non-opioid intracellular receptor 1 (Homo sapiens, UniProt Q99720). Nature of the assay: PDSP Secondary Binding target: SIGMAR1 - Compounds are tested at 10 uM concentration, plate are incubated at room temperature in the dark for 90 minutes. Reaction are stopped by vacuum filtration onto 0.3% polyethyleneimine soaked filter mats using Filtermate harvester. Scintillation cocktail is then melted onto microwave-dried filters on a hot plate and the radio activity is counted in Microbia counter.

The target of a further assay is Histamine H3 receptor (Homo sapiens, UniProt Q9Y5N1). Nature of the assay: PDSP Secondary Binding target: HRH3 - Compounds are tested at 10 uM concentration, plate are incubated at room temperature in the dark for 90 minutes. Reaction are stopped by vacuum filtration onto 0.3% polyethyleneimine soaked filter mats using Filtermate harvester. Scintillation cocktail is then melted onto microwave-dried filters on a hot plate and the radio activity is counted in Microbia counter.
Chain of Histamine H3 receptor (Q9Y5N1 whole entry): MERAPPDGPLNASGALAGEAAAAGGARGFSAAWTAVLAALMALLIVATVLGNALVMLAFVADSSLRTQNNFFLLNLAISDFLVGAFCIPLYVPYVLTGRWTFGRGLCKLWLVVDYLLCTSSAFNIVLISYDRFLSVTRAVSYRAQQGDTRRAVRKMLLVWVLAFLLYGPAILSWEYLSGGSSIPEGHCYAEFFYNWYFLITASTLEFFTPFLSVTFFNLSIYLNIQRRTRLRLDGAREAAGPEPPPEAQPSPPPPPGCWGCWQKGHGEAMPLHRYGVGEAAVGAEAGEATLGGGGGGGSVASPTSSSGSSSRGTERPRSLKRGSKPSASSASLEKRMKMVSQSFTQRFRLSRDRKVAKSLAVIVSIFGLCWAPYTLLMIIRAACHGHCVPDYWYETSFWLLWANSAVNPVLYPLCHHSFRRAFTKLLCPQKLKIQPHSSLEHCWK

For the next assay, the target named is D(2) dopamine receptor (Homo sapiens, UniProt P14416). The assay can be described thus: PDSP Secondary Binding target: DRD2 - Compounds are tested at 10 uM concentration, plate are incubated at room temperature in the dark for 90 minutes. Reaction are stopped by vacuum filtration onto 0.3% polyethyleneimine soaked filter mats using Filtermate harvester. Scintillation cocktail is then melted onto microwave-dried filters on a hot plate and the radio activity is counted in Microbia counter.
Chain of D(2) dopamine receptor (P14416 whole entry): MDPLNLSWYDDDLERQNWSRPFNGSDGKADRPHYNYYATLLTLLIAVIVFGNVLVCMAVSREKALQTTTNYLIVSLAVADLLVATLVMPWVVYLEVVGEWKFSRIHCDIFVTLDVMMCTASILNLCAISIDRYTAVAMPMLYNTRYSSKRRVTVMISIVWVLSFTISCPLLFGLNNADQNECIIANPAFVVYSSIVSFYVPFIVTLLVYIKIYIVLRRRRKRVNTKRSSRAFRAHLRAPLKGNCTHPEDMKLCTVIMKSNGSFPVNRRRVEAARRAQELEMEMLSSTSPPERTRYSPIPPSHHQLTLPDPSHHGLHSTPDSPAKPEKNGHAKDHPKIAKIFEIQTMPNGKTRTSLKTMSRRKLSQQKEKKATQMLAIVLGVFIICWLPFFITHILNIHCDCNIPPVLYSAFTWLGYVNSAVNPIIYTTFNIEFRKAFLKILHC

Another assay has as its target Mu-type opioid receptor (Homo sapiens, UniProt P35372). Nature of the assay: PDSP Secondary Binding target: OPRM1 - Compounds are tested at 10 uM concentration, plate are incubated at room temperature in the dark for 90 minutes. Reaction are stopped by vacuum filtration onto 0.3% polyethyleneimine soaked filter mats using Filtermate harvester. Scintillation cocktail is then melted onto microwave-dried filters on a hot plate and the radio activity is counted in Microbia counter.

Assay [8] deals with T2, 5-hydroxytryptamine receptor 1A (Homo sapiens, UniProt P08908).
T2 sequence (P08908 whole entry): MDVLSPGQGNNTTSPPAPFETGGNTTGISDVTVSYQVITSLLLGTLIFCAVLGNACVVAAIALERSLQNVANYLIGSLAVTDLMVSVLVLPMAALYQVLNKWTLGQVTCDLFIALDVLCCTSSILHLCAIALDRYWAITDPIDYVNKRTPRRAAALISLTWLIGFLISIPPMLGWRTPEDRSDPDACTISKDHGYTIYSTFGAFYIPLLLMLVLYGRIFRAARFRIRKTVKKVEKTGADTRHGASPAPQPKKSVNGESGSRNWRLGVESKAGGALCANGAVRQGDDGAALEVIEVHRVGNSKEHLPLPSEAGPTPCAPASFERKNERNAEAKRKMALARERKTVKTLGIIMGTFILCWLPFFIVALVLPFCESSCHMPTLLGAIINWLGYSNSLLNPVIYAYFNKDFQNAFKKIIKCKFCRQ
The assay can be described thus: PDSP Secondary Binding target: HTR1A - Compounds are tested at 10 uM concentration, plate are incubated at room temperature in the dark for 90 minutes. Reaction are stopped by vacuum filtration onto 0.3% polyethyleneimine soaked filter mats using Filtermate harvester. Scintillation cocktail is then melted onto microwave-dried filters on a hot plate and the radio activity is counted in Microbia counter.

In another assay the target is T3, D(4) dopamine receptor (Homo sapiens, UniProt P21917).
T3 sequence (P21917 whole entry): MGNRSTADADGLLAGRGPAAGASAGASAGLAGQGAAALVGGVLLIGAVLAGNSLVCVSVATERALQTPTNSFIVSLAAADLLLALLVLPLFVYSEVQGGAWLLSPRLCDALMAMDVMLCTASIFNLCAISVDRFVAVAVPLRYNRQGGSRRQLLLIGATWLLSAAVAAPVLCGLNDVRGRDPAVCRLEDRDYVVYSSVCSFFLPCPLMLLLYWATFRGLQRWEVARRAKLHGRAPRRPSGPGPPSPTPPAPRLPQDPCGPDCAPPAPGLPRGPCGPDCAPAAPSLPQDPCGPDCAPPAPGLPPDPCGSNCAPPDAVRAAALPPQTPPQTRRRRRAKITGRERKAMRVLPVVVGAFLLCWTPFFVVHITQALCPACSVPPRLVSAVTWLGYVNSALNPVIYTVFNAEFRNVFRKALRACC
Nature of the assay: PDSP Secondary Binding target: DRD4 - Compounds are tested at 10 uM concentration, plate are incubated at room temperature in the dark for 90 minutes. Reaction are stopped by vacuum filtration onto 0.3% polyethyleneimine soaked filter mats using Filtermate harvester. Scintillation cocktail is then melted onto microwave-dried filters on a hot plate and the radio activity is counted in Microbia counter.

In assay [9] the target is T4, Alpha-1B adrenergic receptor (Homo sapiens, UniProt P35368).
T4 sequence (P35368 whole entry): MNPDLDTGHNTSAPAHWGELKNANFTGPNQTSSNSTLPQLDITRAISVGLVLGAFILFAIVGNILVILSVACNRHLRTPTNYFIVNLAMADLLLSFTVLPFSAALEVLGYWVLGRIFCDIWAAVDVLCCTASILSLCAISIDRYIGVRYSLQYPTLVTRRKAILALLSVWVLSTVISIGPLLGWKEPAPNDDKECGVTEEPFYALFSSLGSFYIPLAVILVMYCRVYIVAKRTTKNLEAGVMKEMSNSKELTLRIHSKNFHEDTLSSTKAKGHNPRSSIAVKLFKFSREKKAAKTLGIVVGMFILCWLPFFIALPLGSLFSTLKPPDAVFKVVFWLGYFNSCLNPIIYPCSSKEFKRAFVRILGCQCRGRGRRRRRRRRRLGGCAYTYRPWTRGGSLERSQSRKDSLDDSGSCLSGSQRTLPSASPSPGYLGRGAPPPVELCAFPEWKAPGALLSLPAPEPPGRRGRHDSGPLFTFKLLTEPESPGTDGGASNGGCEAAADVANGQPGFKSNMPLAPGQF
Nature of the assay: PDSP Secondary Binding target: ADRA1B - Compounds are tested at 10 uM concentration, plate are incubated at room temperature in the dark for 90 minutes. Reaction are stopped by vacuum filtration onto 0.3% polyethyleneimine soaked filter mats using Filtermate harvester. Scintillation cocktail is then melted onto microwave-dried filters on a hot plate and the radio activity is counted in Microbia counter.

Assay [10] concerns the target T5, Muscarinic acetylcholine receptor M2 (Homo sapiens, UniProt P08172).
T5 sequence (P08172 whole entry): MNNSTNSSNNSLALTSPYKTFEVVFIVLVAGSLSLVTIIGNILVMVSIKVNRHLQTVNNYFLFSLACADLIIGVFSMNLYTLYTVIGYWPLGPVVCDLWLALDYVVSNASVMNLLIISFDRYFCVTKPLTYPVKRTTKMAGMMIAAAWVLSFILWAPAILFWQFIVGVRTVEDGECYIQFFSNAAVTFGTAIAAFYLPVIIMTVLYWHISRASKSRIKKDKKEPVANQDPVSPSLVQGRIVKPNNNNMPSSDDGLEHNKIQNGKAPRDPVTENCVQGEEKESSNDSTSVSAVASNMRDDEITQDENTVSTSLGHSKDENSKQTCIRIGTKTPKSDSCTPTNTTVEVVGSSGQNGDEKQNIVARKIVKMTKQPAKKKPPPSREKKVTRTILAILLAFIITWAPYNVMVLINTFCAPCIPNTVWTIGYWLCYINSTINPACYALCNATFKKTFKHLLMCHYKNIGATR
The assay can be described thus: PDSP Secondary Binding target: CHRM2 - Compounds are tested at 10 uM concentration, plate are incubated at room temperature in the dark for 90 minutes. Reaction are stopped by vacuum filtration onto 0.3% polyethyleneimine soaked filter mats using Filtermate harvester. Scintillation cocktail is then melted onto microwave-dried filters on a hot plate and the radio activity is counted in Microbia counter.

Assay [11] deals with T6, Alpha-2C adrenergic receptor (Homo sapiens, UniProt P18825).
T6 sequence (P18825 whole entry): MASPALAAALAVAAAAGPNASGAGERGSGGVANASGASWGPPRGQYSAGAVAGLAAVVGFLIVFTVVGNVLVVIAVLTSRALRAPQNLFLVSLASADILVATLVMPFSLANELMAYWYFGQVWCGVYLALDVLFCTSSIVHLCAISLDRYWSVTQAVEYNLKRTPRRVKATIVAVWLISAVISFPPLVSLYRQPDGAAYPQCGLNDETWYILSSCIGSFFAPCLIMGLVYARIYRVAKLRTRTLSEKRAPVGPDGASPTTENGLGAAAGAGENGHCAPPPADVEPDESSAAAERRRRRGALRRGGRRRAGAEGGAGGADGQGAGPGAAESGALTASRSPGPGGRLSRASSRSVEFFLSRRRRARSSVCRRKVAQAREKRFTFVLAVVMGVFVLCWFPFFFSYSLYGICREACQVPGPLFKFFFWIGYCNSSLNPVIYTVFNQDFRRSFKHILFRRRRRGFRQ
The assay can be described thus: PDSP Secondary Binding target: ADRA2C - Compounds are tested at 10 uM concentration, plate are incubated at room temperature in the dark for 90 minutes. Reaction are stopped by vacuum filtration onto 0.3% polyethyleneimine soaked filter mats using Filtermate harvester. Scintillation cocktail is then melted onto microwave-dried filters on a hot plate and the radio activity is counted in Microbia counter.

The term pKi denotes the negative decadic logarithm of the Ki, by convention in mol/L.

Chain of Sigma intracellular receptor 2 (Q5BJF2 whole entry): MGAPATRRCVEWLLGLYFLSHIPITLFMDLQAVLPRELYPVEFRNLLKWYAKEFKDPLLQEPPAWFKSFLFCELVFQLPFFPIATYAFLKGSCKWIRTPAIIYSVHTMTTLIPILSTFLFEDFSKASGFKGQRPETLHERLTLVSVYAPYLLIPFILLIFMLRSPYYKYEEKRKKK
Chain of Sigma non-opioid intracellular receptor 1 (Q99720 whole entry): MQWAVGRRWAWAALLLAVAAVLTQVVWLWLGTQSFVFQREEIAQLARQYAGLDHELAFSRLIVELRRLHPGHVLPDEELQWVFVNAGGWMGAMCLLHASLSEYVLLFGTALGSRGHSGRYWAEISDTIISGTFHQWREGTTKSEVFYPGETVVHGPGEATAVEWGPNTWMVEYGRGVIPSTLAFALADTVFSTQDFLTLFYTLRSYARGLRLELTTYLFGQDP
Chain of Kappa-type opioid receptor (P41145 whole entry): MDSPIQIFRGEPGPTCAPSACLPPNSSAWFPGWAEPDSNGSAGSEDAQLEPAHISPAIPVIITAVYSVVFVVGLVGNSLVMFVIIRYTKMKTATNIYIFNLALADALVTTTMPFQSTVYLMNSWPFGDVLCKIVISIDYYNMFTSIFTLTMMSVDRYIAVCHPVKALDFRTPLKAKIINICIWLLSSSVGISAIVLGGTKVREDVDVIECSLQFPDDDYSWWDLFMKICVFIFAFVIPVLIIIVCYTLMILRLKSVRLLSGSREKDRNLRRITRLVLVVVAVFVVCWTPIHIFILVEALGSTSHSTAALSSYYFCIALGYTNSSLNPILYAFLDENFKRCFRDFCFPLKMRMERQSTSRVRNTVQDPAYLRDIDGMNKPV
Chain of 5-hydroxytryptamine receptor 1E (P28566 whole entry): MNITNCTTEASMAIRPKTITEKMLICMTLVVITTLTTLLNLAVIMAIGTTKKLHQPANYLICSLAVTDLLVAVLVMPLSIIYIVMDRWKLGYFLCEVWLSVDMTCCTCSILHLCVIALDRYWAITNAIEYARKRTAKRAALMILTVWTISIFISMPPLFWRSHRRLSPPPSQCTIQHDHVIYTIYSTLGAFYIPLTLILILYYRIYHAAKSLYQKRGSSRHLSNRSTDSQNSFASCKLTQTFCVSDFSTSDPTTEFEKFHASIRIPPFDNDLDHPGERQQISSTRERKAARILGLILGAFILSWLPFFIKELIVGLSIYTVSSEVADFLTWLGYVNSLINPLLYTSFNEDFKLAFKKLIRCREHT
Chain of 5-hydroxytryptamine receptor 7 (P34969 whole entry): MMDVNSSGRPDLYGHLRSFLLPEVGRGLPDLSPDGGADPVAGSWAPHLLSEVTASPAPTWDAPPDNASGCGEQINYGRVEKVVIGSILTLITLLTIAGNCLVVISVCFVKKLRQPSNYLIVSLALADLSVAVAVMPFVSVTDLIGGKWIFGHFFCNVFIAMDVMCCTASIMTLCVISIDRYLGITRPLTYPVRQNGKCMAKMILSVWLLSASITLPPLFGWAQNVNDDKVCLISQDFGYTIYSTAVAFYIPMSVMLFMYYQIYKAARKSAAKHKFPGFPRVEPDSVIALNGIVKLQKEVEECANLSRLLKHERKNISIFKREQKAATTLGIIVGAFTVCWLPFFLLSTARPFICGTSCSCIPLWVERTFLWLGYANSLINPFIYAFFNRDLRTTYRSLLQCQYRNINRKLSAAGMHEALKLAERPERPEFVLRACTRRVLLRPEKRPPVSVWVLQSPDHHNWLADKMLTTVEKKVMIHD
Chain of Mu-type opioid receptor (P35372 whole entry): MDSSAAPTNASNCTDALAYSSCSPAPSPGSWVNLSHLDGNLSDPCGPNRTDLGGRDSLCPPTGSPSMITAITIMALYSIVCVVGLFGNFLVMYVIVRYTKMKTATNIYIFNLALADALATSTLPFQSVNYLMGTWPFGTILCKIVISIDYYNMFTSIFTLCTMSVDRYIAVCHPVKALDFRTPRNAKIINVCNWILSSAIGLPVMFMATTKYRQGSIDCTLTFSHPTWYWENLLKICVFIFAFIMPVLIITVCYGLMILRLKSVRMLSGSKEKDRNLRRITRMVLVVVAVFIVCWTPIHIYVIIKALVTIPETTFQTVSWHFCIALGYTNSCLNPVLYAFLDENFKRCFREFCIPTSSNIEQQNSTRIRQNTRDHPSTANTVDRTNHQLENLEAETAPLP

`CN1CCC(C(=O)c2cccc(NC(=O)c3c(F)cc(F)cc3F)n2)CC1`: the pKi in assay [1] is 6.20; in [2], 6.45; in assay [3], 6.74; on D(1B) dopamine receptor it was 6.60; in assay [4], 6.90; in [5] it was 5.27. The pKi is 6.06 in assay [6] and 5.50 in [7].
For `c1nc(CC2CCNCC2)c[nH]1`, the pKi on Histamine H3 receptor is 9.20.
Turning to `CN[C@@H]1CCc2[nH]c3ccc(C(N)=O)cc3c2C1` [FROVATRIPTAN SUCCINATE], the pKi on D(2) dopamine receptor is 6.16; in assay [3], 5.49; at Mu-type opioid receptor, 6.73; in assay [4] it was 6.51; in assay [8] it was 5.83; on D(4) dopamine receptor, 6.04. Moreover, the pKi in assay [9] is < 5.00.
As to `COc1ccc2cc(S(=O)(=O)N[C@H](CC(=O)N[C@H](Cc3ccc(CN4[C@H](C)CCC[C@@H]4C)cc3)C(=O)N(C)C(C)C)c3ccc4c(c3)OCO4)ccc2c1`, the pKi in assay [1] was 6.08; in [2], 6.71; in assay [3] it was 7.20; in assay [10], 6.28; on Histamine H3 receptor, 6.19; in [7], 6.31. In assay [11], the negative-log Ki (pKi) was 5.90.
